Series [1] in a line: Hepatocyte incubation, metabolism followed by turbulent flow LC-MS-MS. In kind it is in vitro ADME, human, dog. The following applies: test compound 2 μM, sampled 0-180 minutes; transitions 439 to 84 (ketone) and 441 to 84 (alcohol). On the procedure: Hepatocyte incubations were used to determine the metabolism of both compound 1A according to the present invention and also the compound of Preparation 1. In such testing a marker compound was routinely included to ensure reproducible, active preparations were obtained.
Standard methodologies relating to hepatocyte testing can be found in: Carlille, D, Zomorodi, K, Houston, B; Drug Met. Dispos. 1997, 25(8), pp903-911, “Scaling factors to relate drug metabolic clearance in hepatic microsomes isolated hepatocytes, and the intact liver”.
Marker compound: 0.3 mM Propranolol in 100% DMSO.
Test materials (e.g. compound 1A) 1 mg/ml stocks or 3 mM in 100% DMSO.
Human hepatocytes used at a concentration of 2×10^6 cells/ml (per compound tested).
Dog hepatocytes used at a concentration of 1×10^6 cells/ml (per compound tested).
William's E buffer (1 pot of William's E powder from Sigma, 900 ml distilled water, 2.2 g sodium bicarbonate, 100 ml Foetal Bovine Serum) STOP solution (Midazolam internal standard plus acetonitrile: 600 μl of 10 μg/ml midazolam +30 ml acetonitrile). […]
Hepatocyte viability was determined using the Trypan Blue Exclusion method by gentle mixing of 350 μl KH buffer+100 μI Trypan Blue solution+50 μl cell suspension in an eppendorf tube. The cells were then counted using a haemocytometer. […] The number of viable (colourless) cells within 10 squares was recorded. […]

For the next series, the target named is T1, cGMP PDE5 (Homo sapiens, UniProt O76074).
T1 construct: were obtained from human corpus cavernosum or human platelets; from tissue; host or cells: human corpus cavernosum or human platelets
The experiment in a line: Phosphodiesterase (PDE) inhibitory activity, in vitro IC50. In kind it is biochemical. The following applies: read-out: IC50 as an inhibitor of cGMP PDE5. On the procedure:
The compounds of the present invention are cGMP PDE5 inhibitors. In vitro PDE inhibitory activities against cyclic guanosine 3′,5′-monophosphate (CGMP) and cyclic adenosine 3′,5′-monophosphate (cAMP) phosphodiesterases were determined by measurement of their IC50 values (the concentration of compound required for 50% inhibition of enzyme activity).
The required PDE enzymes were isolated from a variety of sources, including human corpus cavernosum, human and rabbit platelets, human cardiac ventricle, human skeletal muscle and human and canine retina, essentially by the method of W. J. Thompson and M. M. Appleman (Biochem., 1971, 10, 311). In particular, the cGMP-specific PDE (PDE5) and the cGMP-inhibited cAMP PDE (PDE3) were obtained from human corpus cavernosum or human platelets; the cGMP-stimulated PDE (PDE2) was obtained from human corpus cavernosum and human platelets; the calcium/calmodulin (Ca/CAM)-dependent PDE (PDE1) from human cardiac ventricle; the cAMP-specific PDE (PDE4) from human skeletal muscle and human recombinant, expressed in SF9 cells; and the photoreceptor PDE (PDE6) from human or canine retina. Phosphodiesterases 7-11 were generated from full length human recombinant clones transfected into SF9 cells. […]

The nature of series [2]: In vivo interconversion of compound 1A and the compound of Preparation 1. As to conditions: no species or method printed.

The structures appear in SMILES notation.

In the case of `CCCCOc1ncc(C(C)O)cc1-c1nc2c(CC)n(C3CN(CC)C3)nc2c(=O)[nH]1` (centres unmarked) [Example 1A, 5-[2-Butoxy-5-(1-hydroxyethyl)-3-pyridinyl]-3-ethyl-2-(1-ethyl-3-azetidinyl)-2,6-dihydro-7H-pyrazolo[4,3-d]pyrimidin-7-one], the “mass transition of the starting compound during hepatocyte incubation; product transition then appears” value in series [1] was “reduces to levels below the detection limit of the equipment”. The IC50 on cGMP PDE5 is 825 nM. For the same compound, the “conversion in vivo (pro-drug / metabolite relation)” value in series [2] is recorded as “converted in vivo to provide the compound of Preparation 1”.

Take `CCCCOc1ncc(C(C)=O)cc1-c1nc2c(CC)n(C3CN(CC)C3)nc2c(=O)[nH]1` [Preparation 1, 5-(5-acetyl-2-butoxy-3-pyridinyl)-3-ethyl-2-(1-ethyl-3-azetidinyl)-2,6-dihydro-7H-pyrazolo[4,3-d]pyrimidin-7-one, reference compound]: the “mass transition of the starting compound during hepatocyte incubation; product transition then appears” value in series [1] is listed as “reduces to levels below the detection limit of the equipment”. For the same compound, the “conversion in vivo (pro-drug / metabolite relation)” value in series [2] was “Compound 1A is a metabolite of the compound of Preparation 1”.

These data come from patent publication US20020173502A1, “Pharmaceutically active compounds” (priority 2001, published 2002).
